{"source": "PubChem BioAssay AID504875", "about": "(The Scripps Research Institute Molecular Screening Center, 2011)", "test_system": "cell viability, ATP luminescence (cytotoxicity counter-screen)", "assay": "cell viability after agonist treatment – luminescence, dose response, set 2, assay provider, cytotoxicity control for S1P4 agonist project, late-stage follow-up (AID 504875)", "note": "The source made the active and inactive calls. The rule behind the calls is not given here.", "data": [{"smiles": "COCCN=C1S/C(=C\\c2cc(C)n(-c3ccc(F)cc3F)c2C)C(=O)N1C", "values": [{"measurement": "CC50", "value": "> 10 µM (inactive)"}]}]}
